pKi: −log10 of the molar value.
Key:
[1] = Inhibition of yeast ADH by Michaelis constant analysis; parameters: species or system Saccharomyces cerevisiae
[2] = Inhibition of Thermoanaerobacter brockii ADH by Michaelis constant analysis
[3] = Inhibition of Leuconostoc mesenteroides D-LDH by Michaelis constant analysis
[4] = Inhibition of pig heart LDH by Michaelis constant analysis; parameters: species or system Sus scrofa
[5] = Inhibition of pig heart MDH by Michaelis constant analysis; parameters: species or system Sus scrofa
[6] = species on record: Gallus gallus; experiment: Inhibition of chicken liver NAD kinase assessed as residual activity relative to control

Row | pKi [1] | pKi [2] | pKi [3] | pKi [4] | pKi [5] | Activity [6] | SMILES
1 | 2.44 | 2.14 | 1.70 | 2.57 | 2.74 | 64% | NC(=O)c1csc([C@@H]2O[C@H](COC(=O)CCC(=O)OC[C@H]3O[C@@H](n4cnc5c(N)ncnc54)[C@H](O)[C@@H]3O)[C@@H](O)[C@H]2O)n1
2 | 3.21 | 3.15 | 2.00 | 3.10 | 3.15 | 81% | NC(=O)c1csc([C@@H]2O[C@H](COC(=O)[C@@H]3CCCC[C@H]3C(=O)OC[C@H]3O[C@@H](n4cnc5c(N)ncnc54)[C@H](O)[C@@H]3O)[C@@H](O)[C@H]2O)n1
3 | 2.59 | 2.15 | 1.62 | 2.41 | 2.48 | 60% | NC(=O)c1csc([C@@H]2O[C@H](COC(=O)[C@H]3CCCC[C@@H]3C(=O)OC[C@H]3O[C@@H](n4cnc5c(N)ncnc54)[C@H](O)[C@@H]3O)[C@@H](O)[C@H]2O)n1

From ChEMBL document CHEMBL3627658, “Novel concept of enzyme selective nicotinamide adenine dinucleotide (NAD)-modified inhibitors based on enzyme taxonomy from the diphosphate conformation of NAD” (Bioorg Med Chem Lett, 2015)
